Patent US20170190705A1, “Compositions and Methods for Inhibiting BMP” (THE BRIGHAM AND WOMAN'S HOSPITAL, INC., priority 2014, published 2017)

Columns and labels:
Type in all cases: biochemical
AKT1 = AKT1 (Homo sapiens, UniProt P31749); assay: Kinome profiling AKT1; conditions: read-out: Inhibitory activity AKT1; for inhibition at 0.1 µM: 100 nM
Protocol: (§1) . The kinome-wide selectivity was determined following the methods previously reported by Mohedas et al., ACS Chem Biol 2013, 8, 1291-1302 and Sanvitale et al., PLoS One 2013, 8, e62721.

HIPK4 = target: T1, HIPK4 (Homo sapiens, UniProt Q8NE63); assay: Kinome profiling HIPK4; conditions: read-out: Inhibitory activity HIPK4; for inhibition at 0.1 µM: 100 nM
T1 sequence (Q8NE63 1-616): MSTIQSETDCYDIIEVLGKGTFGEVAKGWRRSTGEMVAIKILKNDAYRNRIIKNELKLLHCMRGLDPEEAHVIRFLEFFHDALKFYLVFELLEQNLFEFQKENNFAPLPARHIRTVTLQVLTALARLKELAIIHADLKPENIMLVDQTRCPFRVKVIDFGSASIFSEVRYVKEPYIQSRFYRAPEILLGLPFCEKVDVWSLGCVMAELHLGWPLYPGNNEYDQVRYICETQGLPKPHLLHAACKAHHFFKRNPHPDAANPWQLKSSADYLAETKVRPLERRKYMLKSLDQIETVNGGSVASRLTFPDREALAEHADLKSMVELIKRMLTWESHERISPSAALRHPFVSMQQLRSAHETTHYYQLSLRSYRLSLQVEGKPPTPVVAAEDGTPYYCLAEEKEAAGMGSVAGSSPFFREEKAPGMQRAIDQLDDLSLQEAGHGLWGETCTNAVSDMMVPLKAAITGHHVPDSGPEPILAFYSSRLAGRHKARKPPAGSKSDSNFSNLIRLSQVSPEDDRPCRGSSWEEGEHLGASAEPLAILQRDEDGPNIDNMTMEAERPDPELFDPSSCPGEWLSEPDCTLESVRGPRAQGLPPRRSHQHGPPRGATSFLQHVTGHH
Protocol: as §1

CAMK2α = CAMK2α (Homo sapiens, UniProt Q9UQM7); assay: Kinome profiling CAMK2α; conditions: read-out: Inhibitory activity CAMK2α; for inhibition at 0.1 µM: 100 nM
Sequence of CAMK2α (Q9UQM7 whole entry): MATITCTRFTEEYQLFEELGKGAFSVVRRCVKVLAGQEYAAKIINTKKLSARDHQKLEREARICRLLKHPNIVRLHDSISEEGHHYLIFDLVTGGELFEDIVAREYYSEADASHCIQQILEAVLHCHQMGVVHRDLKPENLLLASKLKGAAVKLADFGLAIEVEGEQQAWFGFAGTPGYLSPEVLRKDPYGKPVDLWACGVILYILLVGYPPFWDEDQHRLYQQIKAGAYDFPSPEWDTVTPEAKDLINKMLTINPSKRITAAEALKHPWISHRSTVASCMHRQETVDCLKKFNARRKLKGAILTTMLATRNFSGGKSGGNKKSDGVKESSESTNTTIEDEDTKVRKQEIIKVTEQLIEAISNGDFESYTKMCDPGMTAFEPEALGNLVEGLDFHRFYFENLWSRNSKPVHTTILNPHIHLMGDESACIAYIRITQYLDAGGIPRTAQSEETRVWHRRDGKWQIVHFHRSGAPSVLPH
Protocol: as §1

EPH-A4 = EPH-A4 (Homo sapiens, UniProt P54764); assay: Kinome profiling EPH-A4; conditions: read-out: Inhibitory activity EPH-A4; for inhibition at 0.1 µM: 100 nM
Sequence of EPH-A4 (P54764 20-986): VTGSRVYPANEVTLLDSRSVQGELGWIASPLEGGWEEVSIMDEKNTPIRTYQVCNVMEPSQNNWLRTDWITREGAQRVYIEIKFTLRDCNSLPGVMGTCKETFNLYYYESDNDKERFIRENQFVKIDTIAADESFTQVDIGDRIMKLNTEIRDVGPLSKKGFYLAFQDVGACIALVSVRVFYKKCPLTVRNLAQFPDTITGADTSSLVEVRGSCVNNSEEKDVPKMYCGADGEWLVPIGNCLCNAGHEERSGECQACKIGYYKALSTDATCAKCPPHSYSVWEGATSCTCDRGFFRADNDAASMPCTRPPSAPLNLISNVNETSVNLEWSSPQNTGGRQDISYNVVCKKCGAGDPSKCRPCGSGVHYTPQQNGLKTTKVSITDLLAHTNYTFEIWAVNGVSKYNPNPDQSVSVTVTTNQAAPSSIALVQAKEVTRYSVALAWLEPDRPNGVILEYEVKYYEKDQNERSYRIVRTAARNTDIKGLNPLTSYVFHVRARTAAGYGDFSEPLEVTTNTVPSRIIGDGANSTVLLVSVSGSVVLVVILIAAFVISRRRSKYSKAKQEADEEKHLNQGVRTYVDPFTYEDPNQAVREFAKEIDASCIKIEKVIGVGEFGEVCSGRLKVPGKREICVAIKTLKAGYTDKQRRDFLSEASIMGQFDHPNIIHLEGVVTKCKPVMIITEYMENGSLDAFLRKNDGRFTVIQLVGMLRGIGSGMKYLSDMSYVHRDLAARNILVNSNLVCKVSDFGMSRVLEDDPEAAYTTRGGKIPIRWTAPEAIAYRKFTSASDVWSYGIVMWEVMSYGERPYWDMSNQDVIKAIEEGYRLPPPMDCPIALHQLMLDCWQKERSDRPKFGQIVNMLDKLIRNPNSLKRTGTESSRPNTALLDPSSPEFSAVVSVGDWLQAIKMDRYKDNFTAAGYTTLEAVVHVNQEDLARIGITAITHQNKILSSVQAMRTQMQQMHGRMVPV
Protocol: as §1

CAMK2δ = CAMK2δ (Homo sapiens, UniProt Q13557); assay: Kinome profiling CAMK2δ; conditions: read-out: Inhibitory activity CAMK2δ; for inhibition at 0.1 µM: 100 nM
Sequence of CAMK2δ (Q13557 whole entry): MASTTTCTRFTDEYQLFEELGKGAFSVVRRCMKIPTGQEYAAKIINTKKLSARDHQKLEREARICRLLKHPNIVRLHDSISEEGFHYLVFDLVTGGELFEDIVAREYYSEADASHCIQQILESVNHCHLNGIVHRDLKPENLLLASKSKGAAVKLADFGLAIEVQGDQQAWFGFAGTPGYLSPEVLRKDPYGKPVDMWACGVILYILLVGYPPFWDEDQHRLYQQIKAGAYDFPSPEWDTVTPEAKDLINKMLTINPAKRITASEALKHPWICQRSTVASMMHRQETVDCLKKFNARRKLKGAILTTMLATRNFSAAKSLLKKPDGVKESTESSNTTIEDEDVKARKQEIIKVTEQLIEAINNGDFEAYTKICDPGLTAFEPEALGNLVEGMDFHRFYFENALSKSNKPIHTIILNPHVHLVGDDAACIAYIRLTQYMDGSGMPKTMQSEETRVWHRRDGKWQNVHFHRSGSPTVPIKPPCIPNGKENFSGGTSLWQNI
Protocol: as §1

EPHB3 = target: T2, EPHB3 (Homo sapiens, UniProt P54753); assay: Kinome profiling EPHB3; conditions: read-out: Inhibitory activity EPHB3; for inhibition at 0.1 µM: 100 nM
T2 sequence (P54753 34-998): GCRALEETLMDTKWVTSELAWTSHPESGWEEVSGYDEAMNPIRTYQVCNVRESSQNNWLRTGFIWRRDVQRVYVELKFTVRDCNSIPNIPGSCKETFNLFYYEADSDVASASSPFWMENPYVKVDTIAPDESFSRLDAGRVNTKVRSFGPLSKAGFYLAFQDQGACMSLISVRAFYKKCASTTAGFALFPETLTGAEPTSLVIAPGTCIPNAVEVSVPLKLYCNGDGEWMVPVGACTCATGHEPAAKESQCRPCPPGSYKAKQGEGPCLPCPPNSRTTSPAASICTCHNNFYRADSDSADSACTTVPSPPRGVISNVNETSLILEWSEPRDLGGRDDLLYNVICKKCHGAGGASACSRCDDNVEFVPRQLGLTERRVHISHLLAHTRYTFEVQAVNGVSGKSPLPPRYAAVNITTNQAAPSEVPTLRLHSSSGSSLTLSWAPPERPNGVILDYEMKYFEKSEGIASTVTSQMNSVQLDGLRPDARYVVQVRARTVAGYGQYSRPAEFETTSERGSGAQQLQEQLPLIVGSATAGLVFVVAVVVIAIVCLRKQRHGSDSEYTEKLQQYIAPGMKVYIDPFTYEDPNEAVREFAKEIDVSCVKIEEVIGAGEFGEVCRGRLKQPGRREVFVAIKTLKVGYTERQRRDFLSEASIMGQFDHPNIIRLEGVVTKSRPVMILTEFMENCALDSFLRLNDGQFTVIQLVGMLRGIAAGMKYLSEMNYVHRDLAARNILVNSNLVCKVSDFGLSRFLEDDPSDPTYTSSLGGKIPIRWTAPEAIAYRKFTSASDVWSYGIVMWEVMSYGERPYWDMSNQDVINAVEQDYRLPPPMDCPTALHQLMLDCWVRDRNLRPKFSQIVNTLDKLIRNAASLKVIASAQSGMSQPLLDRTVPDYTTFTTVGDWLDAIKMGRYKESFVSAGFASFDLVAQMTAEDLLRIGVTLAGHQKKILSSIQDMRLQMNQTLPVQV
Protocol: as §1

TNK1 = target: T3, TNK1 (Homo sapiens, UniProt Q13470); assay: Kinome profiling TNK1; conditions: read-out: Inhibitory activity TNK1; for inhibition at 0.1 µM: 100 nM
T3 sequence (Q13470 1-666): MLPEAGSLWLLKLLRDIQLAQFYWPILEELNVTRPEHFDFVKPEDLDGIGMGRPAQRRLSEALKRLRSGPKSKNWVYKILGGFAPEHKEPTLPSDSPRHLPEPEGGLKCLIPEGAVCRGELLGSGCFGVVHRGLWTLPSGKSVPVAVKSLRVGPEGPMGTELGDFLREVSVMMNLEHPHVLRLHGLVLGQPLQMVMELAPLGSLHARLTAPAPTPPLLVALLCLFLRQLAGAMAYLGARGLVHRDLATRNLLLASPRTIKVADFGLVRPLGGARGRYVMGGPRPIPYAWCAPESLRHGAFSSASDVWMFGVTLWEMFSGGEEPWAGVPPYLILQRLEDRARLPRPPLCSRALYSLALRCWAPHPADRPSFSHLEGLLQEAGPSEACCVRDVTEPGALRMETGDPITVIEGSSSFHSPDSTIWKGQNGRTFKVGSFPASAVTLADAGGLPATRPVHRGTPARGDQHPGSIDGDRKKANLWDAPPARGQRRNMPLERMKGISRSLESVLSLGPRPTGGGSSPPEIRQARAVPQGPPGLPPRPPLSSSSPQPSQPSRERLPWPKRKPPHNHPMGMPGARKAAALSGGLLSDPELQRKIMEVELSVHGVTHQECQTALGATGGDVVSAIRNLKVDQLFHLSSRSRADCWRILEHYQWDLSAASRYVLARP
Protocol: as §1

MNK2 = MNK2 (Homo sapiens, UniProt Q9HBH9); assay: Kinome profiling MNK2; conditions: read-out: Inhibitory activity MNK2; for inhibition at 0.1 µM: 100 nM
Sequence of MNK2 (Q9HBH9 whole entry): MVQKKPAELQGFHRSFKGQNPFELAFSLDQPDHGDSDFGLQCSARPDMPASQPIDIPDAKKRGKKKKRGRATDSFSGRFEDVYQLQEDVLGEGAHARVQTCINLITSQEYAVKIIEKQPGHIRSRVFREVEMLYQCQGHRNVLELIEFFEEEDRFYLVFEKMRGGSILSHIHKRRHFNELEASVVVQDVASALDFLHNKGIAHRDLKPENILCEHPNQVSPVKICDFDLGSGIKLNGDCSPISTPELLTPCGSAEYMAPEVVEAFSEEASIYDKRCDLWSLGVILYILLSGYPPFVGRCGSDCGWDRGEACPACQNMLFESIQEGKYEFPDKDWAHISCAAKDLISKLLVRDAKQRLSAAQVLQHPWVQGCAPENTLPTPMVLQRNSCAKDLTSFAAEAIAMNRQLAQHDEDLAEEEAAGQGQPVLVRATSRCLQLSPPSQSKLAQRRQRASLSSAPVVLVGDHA
Protocol: as §1

Sequence of AKT1 (P31749 whole entry): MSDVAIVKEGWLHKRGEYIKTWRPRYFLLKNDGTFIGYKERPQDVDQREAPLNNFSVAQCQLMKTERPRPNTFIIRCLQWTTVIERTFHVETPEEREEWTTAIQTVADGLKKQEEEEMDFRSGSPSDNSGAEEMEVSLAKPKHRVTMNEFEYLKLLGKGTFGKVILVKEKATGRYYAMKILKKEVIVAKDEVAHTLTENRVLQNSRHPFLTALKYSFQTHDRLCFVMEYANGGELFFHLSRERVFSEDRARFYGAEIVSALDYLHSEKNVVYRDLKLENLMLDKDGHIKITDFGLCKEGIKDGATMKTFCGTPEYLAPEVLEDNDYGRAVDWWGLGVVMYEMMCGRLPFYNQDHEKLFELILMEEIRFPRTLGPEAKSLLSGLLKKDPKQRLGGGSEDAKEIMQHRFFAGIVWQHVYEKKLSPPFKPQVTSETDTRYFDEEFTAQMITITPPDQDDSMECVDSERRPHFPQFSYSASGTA

SMILES: COc1cc(-c2cc(-c3ccc(N4CCNCC4)cc3)cnc2C)cc(OC)c1OC [Compound 10, 1-(4-(6-methyl-5-(3,4,5-trimethoxyphenyl)pyridin-3-yl)phenyl)piperazine]
- inhibition at 0.1 µM (AKT1): 0%
- inhibition at 1 µM (AKT1): 0%
- inhibition at 0.1 µM (HIPK4): 5%
- inhibition at 1 µM (HIPK4): 8%
- inhibition at 0.1 µM (CAMK2α): -1%
- inhibition at 1 µM (CAMK2α): -1%
- inhibition at 0.1 µM (EPH-A4): 7%
- inhibition at 1 µM (EPH-A4): 5%
- inhibition at 0.1 µM (CAMK2δ): 1%
- inhibition at 1 µM (CAMK2δ): 1%
- inhibition at 0.1 µM (EPHB3): 1%
- inhibition at 1 µM (EPHB3): 1%
- inhibition at 0.1 µM (TNK1): 5%
- inhibition at 1 µM (TNK1): 2%
- inhibition at 0.1 µM (MNK2): 6%
- inhibition at 1 µM (MNK2): 6%

SMILES: COc1cc(-c2cc(-c3ccc(N4CCNCC4)cc3)cnc2N)cc(OC)c1OC [Compound 15, 5-(4-(piperazin-1-yl)phenyl)-3-(3,4,5-trimethoxyphenyl)pyridin-2-amine]
- inhibition at 0.1 µM (AKT1): 0%
- inhibition at 1 µM (AKT1): 2%
- inhibition at 0.1 µM (HIPK4): 1%
- inhibition at 1 µM (HIPK4): 2%
- inhibition at 0.1 µM (CAMK2α): 1%
- inhibition at 1 µM (CAMK2α): -1%
- inhibition at 0.1 µM (EPH-A4): -1%
- inhibition at 1 µM (EPH-A4): 45%
- inhibition at 0.1 µM (CAMK2δ): 1%
- inhibition at 1 µM (CAMK2δ): 3%
- inhibition at 0.1 µM (EPHB3): 5%
- inhibition at 1 µM (EPHB3): 7%
- inhibition at 0.1 µM (TNK1): 2%
- inhibition at 1 µM (TNK1): 16%
- inhibition at 0.1 µM (MNK2): 1%
- inhibition at 1 µM (MNK2): 7%
